Here are results for one substance from US20220332836A1, “A METHOD FOR PREVENTING HUMAN VIRUS ASSOCIATED DISORDERS IN PATIENTS” (NOVARTIS AG, priority 2019, published 2022).

The subject of one data set is non-human primate CD40. In words: Binding to non-human primate CD40. As for the experimental part:
(§1) mAb1 binds to human CD40 with high affinity (Kd of 0.3 nM).

Data set [1] concerns Fcγ receptors (including CD16). Put plainly: Fcγ receptor binding.
For a further data set, the system named is human leukocytes. In words: rCD154-induced activation of human leukocytes. It is filed as cell-based. As for the experimental part: as §1
The test system of data set [2] is monocyte-derived dendritic cells (DCs). Put plainly: Cytokine production by monocyte-derived dendritic cells. It is filed as cell-based. How it is done: as §1
In data set [3] the target is T1, CD40 (Homo sapiens, UniProt P25942).
T1 construct: CD40 occupancy on peripheral B cells measuring free CD40 and total CD40; endogenous in cells; host or cells: peripheral / whole blood B cells of healthy subjects and rheumatoid arthritis patients (in vivo)
T1 sequence (P25942 21-277): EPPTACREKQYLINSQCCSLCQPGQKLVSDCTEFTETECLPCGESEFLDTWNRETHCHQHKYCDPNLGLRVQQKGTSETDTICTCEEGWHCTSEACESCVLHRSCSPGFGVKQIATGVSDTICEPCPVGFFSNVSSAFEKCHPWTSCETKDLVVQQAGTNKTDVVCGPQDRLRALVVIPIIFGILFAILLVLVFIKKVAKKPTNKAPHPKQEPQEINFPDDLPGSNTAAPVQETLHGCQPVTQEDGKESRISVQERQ
Put plainly: CD40 receptor occupancy and CD154-induced CD69 expression in human whole blood cultures. It is filed as cell-based. The note with it: CD20 positive B cells. An excerpt:
In addition, mAb1 can disrupt established germinal centers (GCs) in vivo. The CD40 receptor occupancy and functional activity were simultaneously assessed in vitro using human whole blood cultures. Functional activity was quantified via CD154-induced expression of CD69 (the activation marker) on CD20 positive cells (B cells) and CD40 occupancy was monitored using fluorescently labeled mAb1.

A short description of data set [4]: 13-week GLP rhesus monkey toxicity study. Type of data set: in vivo. How it is done: Inflammatory lesions in the kidneys and lungs of 2 animals at 50 mg/kg were noted, and in one of the two animals, lesions in the eyes and trachea were also noted. […] In view of these inflammatory findings, the No Observed Adverse Effect Level (NOAEL) for the 13-week toxicity study was set at 10 mg/kg. […] The NOAEL derived from the 26-week cynomolgus monkey study is considered the most relevant for supporting the clinical dosing regimen.
Adequate safety margin from preclinical toxicological studies: GLP toxicology studies to date have tested CFZ533 at (i) weekly s.c. dosing for 13 weeks at 10, 50, and 150 mg/kg (s.c. and i.v.) in rhesus monkeys, and (ii) weekly s.c. dosing for 26 weeks at 1, 50, and 150 mg/kg in cynomolgus monkeys.

The test system of data set [5] is CD40. More on the design: species or system cynomolgus monkeys. The settings on record: cynomolgus monkey, in vivo. As for the experimental part: In a PK/PD study in cynomolgus monkeys, the inflection point (about 10 μg/mL) in the PK profiles was associated with a drop of CD40 saturation, as determined in an independent lymphocyte target saturation assay. As such this inflection point is viewed as a marker for the level of saturation of CD40, and an evidence for target engagement. […] Monkeys were immunized with KLH three times (the first was about 3 weeks prior to dosing, the second was 2 weeks after mAb1 administration, and the third was after complete wash-out of mAb1). […]

Data set [6] deals with PBMC incubated with EBV supernatant. Put plainly: EBV regression assay with PBMC. It is filed as cell-based, human. As for the experimental part: Buffy coats from six healthy volunteers (18-001 to 18-006) were received from Blutspendezentrum Bern. Peripheral blood mononuclear cells (PBMC) were isolated using LeucoSep tubes following manufacturer's instructions, counted with TC20 and adjusted in cell culture medium (Medium, buffers and reagents). All conditions (see Table 3-2) were run in five replicates in 96-well U-bottom plates and contained 2×10^5 cells/well. PBMC were incubated for 10-15 minutes at 37° C. before adding cell culture medium containing EBV-supernatant and transferrin (see Medium, buffers and reagents). […] Cell pellets were stained and analyzed by flow cytometry (FACS staining procedure).
In FIG. 1, the gating strategy is shown.

Data set [7] deals with NK cell-depleted PBMC cultures. Put plainly: EBV regression assay, complete or NK cell-depleted PBMC. Type of data set: cell-based, human. The settings on record: 14 days.
Description: (§2) FIG. 16 provides CD3^+ T cell counts from the NK cell-depleted PBMC regression assay after 14 days of culture measured by flow cytometry. Antibodies (in μg/mL) and CsA (in μM) were given in combination with EBV supernatants (except the negative control=medium w/o EBV). Dotted horizontal line was set to the condition ‘medium+EBV’. Data are shown as mean+SEM (n=4).
as §2, with “17” for “16”, “CD19^+ B cell counts from the PBMC regression assay after 14 days of culture measured by flow cytometry. Antibodies (in μg/mL) and CsA (in μM) were given in combination with EBV supernatants (except the negative control=medium w/o EBV). Dotted horizontal line was set to the condition ‘medium+EBV’. Data are shown as mean+SEM (n=4); and CD19^+ B” for “CD3^+ T”
All conditions except ‘medium w/o EBV’ were incubated with EBV supernatant and respective compound or antibodies. […] Looking at the CD19+ B cell proliferation (FIG. 3), there was an obvious increase in CD19+ B cell counts when PBMC were incubated with EBV supernatant compared to PBMC cultured with medium only (medium w/o EBV). […]

Another data set deals with EBV infections. Put plainly: Clinical kidney transplantation data. It is filed as in vivo, human. The note with it: CNI-free therapy in kidney transplantation.
For data set [8] the following is noted: in vivo.
A further data set relates to whole blood cultures. The note with it: whole blood cultures incubated for three days (Ristov 2018); cited from earlier work.
In the next data set the test system is kidney allografts. The settings on record: cited from earlier work.
Setting [9] is: 14 days, CsA 0.1, 1 μM, Belatacept 10, 50 μg/mL, CFZ533, hIgG1 10-200 μg/mL, vs medium+EBV.

“CFZ533: fully human monoclonal Fc-silent, non-depleting anti-CD40 antibody (IgG1/K); heavy chain SEQ ID NO: 9, light chain SEQ ID NO: 10”: in the data set on non-human primate CD40, the “affinity for human and non-human primate CD40” value was “very similar affinities”. In addition, the “binding to Fcγ receptors (including CD16)” value in [1] is recorded as “does not bind”. In addition, the “rCD154-induced activation of human leukocytes” value with human leukocytes is on record as “inhibits”. Moreover, in data set [2], the “induction of cytokine production by monocyte-derived dendritic cells” value is “does not induce”. Besides, in the data set with CD40 [3], the “CD40 occupancy required for full inhibition of rCD154-induced CD69 expression” value is “Almost complete”. For the same substance, the “No Observed Adverse Effect Level (NOAEL)” value in [4] (13-week toxicity study) was found to be 10 mg/kg. The major toxicology findings result in [4] (weekly dosing 13 weeks at 10, 50, 150 mg/kg) is recorded as “did not reveal any major finding”. For the same substance, in the data set with CD40 [5], the “inflection point in the PK profiles (drop of CD40 saturation)” value is recorded as “about 10 μg/mL”. For the same substance, the “EBV control in vitro” value in [6] was “does not impair”. Besides, in data set [6] (setting [9]), the “CD3+ T cell counts” value is listed as “did not had any effect” and the “CD19+ B cell counts” value is listed as “decrease”. For the same substance, the “CD19+ B cell counts” value in data set [7] is recorded as “decrease in CD19+ B cell counts compared to isotype control independently of NK cells”. For the same substance, the “increased incidence of EBV infections” value in the data set with EBV infections was “not observed”. Besides, in the data set on platelet aggregation, the “effect on platelet aggregation” value was “mild inhibitory effects” and the “induction of platelet aggregation responses” value was “does not induce”. Moreover, in data set [8], the “inflection point of non-linear serum concentration-time profiles” value lay in the range of 10 to 20 µg/mL. In addition, the ADCC result in the data set on whole blood cultures is on record as “no ADCC”. Further, in the data set on kidney allografts (in vivo), the “peripheral B cell depletion” value is “no significant peripheral B cell depletion”. For the same substance, the “survival of kidney allografts” value in the data set with kidney allografts (non-human primates) is “can prolong survival”.
